Literature values in patent publication US12600787B2, “Methods for the treatment of thyroid eye disease” (Horizon Therapeutics Ireland DAC, priority 2019, dated 2026).
Where two headings read alike, the source gives them in different places.

Tests used:
[1] = molecular target: ALK (Homo sapiens, UniProt Q9UM73); conditions: cited from earlier work
[2] = molecular target: IGF-1 R (Homo sapiens, UniProt P08069); conditions: cited from earlier work
[3] = tested on: neuroblastoma; conditions: by overcoming crizotinib resistance and inducing apoptosis; cited from earlier work
[4] = tested on: tumors; conditions: in vivo; cited from earlier work
[5] = cited from earlier work
[6] = tested on: intracellular IGF-IR phosphorylation; conditions: cited from earlier work
[7] = molecular target: IGF-IR (purified enzyme) (Homo sapiens, UniProt P08069); conditions: cited from earlier work
[8] = molecular target: c-erbB2/HER2/neu receptor (Homo sapiens, UniProt P04626); conditions: cited from earlier work
[9] = tested on: susceptible tumor cell populations; conditions: cited from earlier work
[10] = cited from earlier work; remark: listed apart in the source
[11] = tested on: IGF-1 R-overexpressing tumor cells; conditions: cited from earlier work
[12] = tested on: moderate-to-severe active TED; conditions: cited from earlier work
[13] = tested on: TED (GO); conditions: cited from earlier work

IGF-1 R, sequence (P08069 31-1367): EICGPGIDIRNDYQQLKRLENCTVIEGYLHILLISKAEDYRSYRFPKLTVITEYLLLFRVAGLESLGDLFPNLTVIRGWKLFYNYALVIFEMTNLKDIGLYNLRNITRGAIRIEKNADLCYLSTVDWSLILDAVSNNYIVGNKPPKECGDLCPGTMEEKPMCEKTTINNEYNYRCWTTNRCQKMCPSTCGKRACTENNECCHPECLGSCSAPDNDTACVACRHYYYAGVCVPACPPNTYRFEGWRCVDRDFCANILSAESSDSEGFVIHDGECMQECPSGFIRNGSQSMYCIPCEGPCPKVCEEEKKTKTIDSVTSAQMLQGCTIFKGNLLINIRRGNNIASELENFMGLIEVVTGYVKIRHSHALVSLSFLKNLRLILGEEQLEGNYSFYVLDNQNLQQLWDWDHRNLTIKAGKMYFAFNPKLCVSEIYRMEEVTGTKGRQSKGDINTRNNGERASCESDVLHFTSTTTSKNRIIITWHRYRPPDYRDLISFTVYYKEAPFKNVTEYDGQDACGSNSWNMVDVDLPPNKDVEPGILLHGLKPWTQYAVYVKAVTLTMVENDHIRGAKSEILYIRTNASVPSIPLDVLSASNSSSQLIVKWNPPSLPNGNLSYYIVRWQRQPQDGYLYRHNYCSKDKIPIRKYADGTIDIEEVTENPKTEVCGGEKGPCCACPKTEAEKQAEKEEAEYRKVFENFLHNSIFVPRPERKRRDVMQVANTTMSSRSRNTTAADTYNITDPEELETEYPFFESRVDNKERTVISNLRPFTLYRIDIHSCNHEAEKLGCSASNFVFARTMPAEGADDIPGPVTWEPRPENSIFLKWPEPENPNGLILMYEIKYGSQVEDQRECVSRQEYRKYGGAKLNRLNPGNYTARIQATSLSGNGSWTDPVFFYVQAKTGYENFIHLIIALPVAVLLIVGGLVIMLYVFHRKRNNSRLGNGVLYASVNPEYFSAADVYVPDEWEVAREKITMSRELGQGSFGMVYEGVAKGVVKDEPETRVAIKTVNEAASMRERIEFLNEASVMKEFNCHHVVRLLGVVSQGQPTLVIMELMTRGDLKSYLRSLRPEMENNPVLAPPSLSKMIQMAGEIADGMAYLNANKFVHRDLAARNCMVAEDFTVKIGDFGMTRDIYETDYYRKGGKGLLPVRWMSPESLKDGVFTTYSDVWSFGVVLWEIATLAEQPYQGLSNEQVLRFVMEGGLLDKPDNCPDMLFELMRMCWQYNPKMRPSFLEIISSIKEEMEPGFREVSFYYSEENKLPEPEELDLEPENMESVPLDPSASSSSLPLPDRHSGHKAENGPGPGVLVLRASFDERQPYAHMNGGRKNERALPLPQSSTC
IGF-IR (purified enzyme), sequence (P08069 31-1367): as above
ALK, sequence (Q9UM73 19-1620, species assumed): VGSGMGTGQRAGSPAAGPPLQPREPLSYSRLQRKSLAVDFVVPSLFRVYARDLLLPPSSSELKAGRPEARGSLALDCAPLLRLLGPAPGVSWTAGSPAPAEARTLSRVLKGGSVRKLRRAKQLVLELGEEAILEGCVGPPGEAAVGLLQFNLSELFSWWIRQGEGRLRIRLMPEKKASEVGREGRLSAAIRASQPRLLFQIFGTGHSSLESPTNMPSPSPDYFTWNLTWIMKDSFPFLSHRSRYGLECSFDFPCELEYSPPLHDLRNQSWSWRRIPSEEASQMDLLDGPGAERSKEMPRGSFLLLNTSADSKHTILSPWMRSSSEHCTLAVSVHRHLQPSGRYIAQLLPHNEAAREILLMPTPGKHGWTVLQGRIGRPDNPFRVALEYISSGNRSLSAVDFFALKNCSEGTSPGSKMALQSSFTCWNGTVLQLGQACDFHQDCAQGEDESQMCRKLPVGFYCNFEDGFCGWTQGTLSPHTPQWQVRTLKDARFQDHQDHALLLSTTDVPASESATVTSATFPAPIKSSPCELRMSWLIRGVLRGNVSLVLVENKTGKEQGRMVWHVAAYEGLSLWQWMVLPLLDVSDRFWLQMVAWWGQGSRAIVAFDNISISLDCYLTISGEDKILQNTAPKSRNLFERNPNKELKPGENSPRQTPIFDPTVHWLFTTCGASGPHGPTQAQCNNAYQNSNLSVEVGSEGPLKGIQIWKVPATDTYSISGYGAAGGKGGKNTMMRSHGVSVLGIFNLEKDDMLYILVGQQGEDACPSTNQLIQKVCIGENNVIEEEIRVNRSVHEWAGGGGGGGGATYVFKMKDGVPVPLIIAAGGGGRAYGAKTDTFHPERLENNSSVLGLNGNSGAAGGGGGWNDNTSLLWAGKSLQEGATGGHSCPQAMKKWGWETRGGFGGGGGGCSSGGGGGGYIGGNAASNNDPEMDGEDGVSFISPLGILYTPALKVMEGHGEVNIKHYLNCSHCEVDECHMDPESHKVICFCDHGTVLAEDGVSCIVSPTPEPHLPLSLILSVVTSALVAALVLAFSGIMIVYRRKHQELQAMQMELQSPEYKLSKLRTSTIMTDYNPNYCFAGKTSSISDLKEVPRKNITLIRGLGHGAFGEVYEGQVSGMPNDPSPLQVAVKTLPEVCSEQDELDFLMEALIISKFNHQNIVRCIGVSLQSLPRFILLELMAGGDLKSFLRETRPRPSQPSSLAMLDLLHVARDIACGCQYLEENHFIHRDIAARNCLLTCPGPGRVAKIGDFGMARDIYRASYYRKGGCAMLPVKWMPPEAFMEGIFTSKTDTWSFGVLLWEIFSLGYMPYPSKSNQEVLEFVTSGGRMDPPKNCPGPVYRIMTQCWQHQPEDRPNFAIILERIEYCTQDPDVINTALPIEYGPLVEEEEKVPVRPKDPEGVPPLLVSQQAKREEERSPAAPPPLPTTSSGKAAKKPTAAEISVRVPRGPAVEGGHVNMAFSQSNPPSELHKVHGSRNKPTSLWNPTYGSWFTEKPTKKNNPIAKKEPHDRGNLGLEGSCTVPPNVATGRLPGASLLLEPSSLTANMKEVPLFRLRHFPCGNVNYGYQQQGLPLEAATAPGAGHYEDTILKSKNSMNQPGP
c-erbB2/HER2/neu receptor, sequence (P04626 23-1255): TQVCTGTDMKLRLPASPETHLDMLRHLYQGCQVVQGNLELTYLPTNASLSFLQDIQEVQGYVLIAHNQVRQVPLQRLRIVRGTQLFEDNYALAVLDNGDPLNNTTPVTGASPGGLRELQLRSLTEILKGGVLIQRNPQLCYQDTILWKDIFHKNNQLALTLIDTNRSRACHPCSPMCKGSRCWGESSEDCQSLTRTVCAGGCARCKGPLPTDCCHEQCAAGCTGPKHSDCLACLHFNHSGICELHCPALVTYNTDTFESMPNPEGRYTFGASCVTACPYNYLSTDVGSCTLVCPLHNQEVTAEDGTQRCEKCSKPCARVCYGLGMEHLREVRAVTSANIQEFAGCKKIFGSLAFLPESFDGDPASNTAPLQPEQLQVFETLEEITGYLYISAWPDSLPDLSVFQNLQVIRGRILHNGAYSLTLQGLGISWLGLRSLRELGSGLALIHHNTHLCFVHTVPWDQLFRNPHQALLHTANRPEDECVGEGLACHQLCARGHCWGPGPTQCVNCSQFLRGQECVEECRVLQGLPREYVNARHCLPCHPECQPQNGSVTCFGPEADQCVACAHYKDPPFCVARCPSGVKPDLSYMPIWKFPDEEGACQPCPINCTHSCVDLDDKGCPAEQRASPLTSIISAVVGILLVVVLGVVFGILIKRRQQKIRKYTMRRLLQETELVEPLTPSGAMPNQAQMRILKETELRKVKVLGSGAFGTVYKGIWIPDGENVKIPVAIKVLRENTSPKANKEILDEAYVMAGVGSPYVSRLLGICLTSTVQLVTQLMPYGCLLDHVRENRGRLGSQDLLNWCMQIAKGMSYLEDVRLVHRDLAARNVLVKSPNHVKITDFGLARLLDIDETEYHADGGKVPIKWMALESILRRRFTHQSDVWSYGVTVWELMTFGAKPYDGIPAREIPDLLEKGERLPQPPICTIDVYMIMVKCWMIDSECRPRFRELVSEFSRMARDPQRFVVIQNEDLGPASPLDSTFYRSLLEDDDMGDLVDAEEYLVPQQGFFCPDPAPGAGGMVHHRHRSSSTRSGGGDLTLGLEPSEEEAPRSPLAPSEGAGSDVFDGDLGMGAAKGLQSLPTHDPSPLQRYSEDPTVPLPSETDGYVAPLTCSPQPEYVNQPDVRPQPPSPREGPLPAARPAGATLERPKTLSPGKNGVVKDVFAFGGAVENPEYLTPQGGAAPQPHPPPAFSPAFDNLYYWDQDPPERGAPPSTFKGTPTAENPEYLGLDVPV

In the case of `COc1cc(N2CCC(N)CC2)ccc1Nc1ncc(Cl)c(-c2c[nH]c3ccccc23)n1` [AZD3463], the ALK inhibition [1] is listed as “potent ALK/IGF-1 R inhibitor”, the IGF-1R inhibition [2] is listed as “potent ALK/IGF-1 R inhibitor” and the neuroblastoma growth [3] is listed as “inhibition of neuroblastoma growth”.

For `COCCN1CCN(CCn2ccc(Nc3ncc4c(n3)[C@@H](C)Cc3nn(C)c(-c5ccccc5)c3-4)n2)CC1` [BI885578], the “cell proliferation and apoptosis in tumors” value [4] is given as “inhibition of cell proliferation and induction of apoptosis in tumors”, the in vivo half-life [5] is given as “short in vivo half-life” and the intestinal absorption ([5]; in vivo) is given as “rapid intestinal absorption”. For the same molecule, the metabolic clearance ([5]; in vivo) was “rapid metabolic clearance”.

In the case of `Nc1ncnc2c1c(-c1ccc3[nH]c(Cc4ccccc4Cl)nc3c1)nn2[C@H]1CC[C@H](N2CCOCC2)CC1` [Example A-928605], the “inhibition of IGF-IR phosphorylation” value [6] is given as “potent inhibitor” and the “inhibition of IGF-IR” value [7] is given as “potent inhibitor”.

For `C[C@H](Cc1ccc(O)c(O)c1)[C@@H](C)Cc1ccc(O)c(O)c1` [INSM-18, nordihydroguaiaretic acid], the IGF-1R inhibition [2] is given as “directly inhibits activation”, the “inhibition of activation of c-erbB2/HER2/neu receptor” value [8] is given as “directly inhibits activation” and the “proliferation of tumor cells” value [9] is given as “decreased proliferation”.

For `C[C@]1(O)C[C@@H](c2nc(-c3ccc4ccc(-c5ccccc5)nc4c3)c3c(N)nccn32)C1` [Linsitinib], the T1/2 ([10]; oral) is given as “oral; 2-4 hrs”.

In the case of `CCOC(=O)N1CCC(Nc2cc(Cl)cc3c(S(=O)(=O)N4CCO[C@H](COc5ccccc5)C4)c(C(N)=O)[nH]c23)CC1` [PL-225B], the IGF-1R inhibition [2] is listed as “selectively inhibits”, the tumor cell apoptosis [11] is listed as “induction of tumor cell apoptosis” and the tumor cell proliferation [11] is listed as “inhibition of tumor cell proliferation”. The T1/2 ([10]; oral) was “Oral; 21d”.

For “Cixutumumab: IGF-1R inhibitor antibody, HC SEQ ID NO:55, LC SEQ ID NO:56”, the T1/2 ([10]; IV) is listed as “IV; 5 days”.

In the case of “Dalotuzumab: IGF-1R inhibitor antibody, HC SEQ ID NO:7, LC SEQ ID NO:8”, the T1/2 ([10]; in vivo) is given as “IV; 5 days”.

In the case of “rituximab: a CD20+ B cell-depleting agent”, the “trial result versus placebo” value ([12]; first monocenter RCT, 2015) is listed as “negative (no differences with placebo)”, the “reduction in proptosis compared with ivGCs” value ([12]; results using rituximab versus ivGC RCT) is listed as “not different” and the “trial result versus ivGCs” value ([12]; second monocenter RCT, 2015) is listed as “positive (beneficial effects comparable to ivGCs)”.

In the case of “teprotumumab: fully human IGF-IR-inhibitory monoclonal antibody approved for the treatment of TED”, the “efficacy in the treatment of TED” value ([13]; in vivo) is given as “effective”, the “average decrease in exophthalmos” value ([13]; vs. 0.15 mm in the placebo group) is given as 2.46 mm and the T1/2 ([10]; IV) is given as “IV; 8 days”.

B1: Figitumumab: IGF-1R inhibitor antibody, HC SEQ ID NO:39, LC SEQ ID NO:40 (antibody)
heavy: EVQLLESGGGLVQPGGSLRLSCTASGFTFSSYAMNWVRQAPGKGLEWVSAISGSGGTTFYADSVKGRFTISRDNSRTTLYLQMNSLRAEDTAVYYCAKDLGWSDSYYYYYGMDVWGQGTTVTVSSASTKGPSVFPLAPCSRSTSESTAALGCLVKDYFPEPVTVSWNSGALTSGVHTFPAVLQSSGLYSLSSVVTVPSSNFGTQTYTCNVDHKPSNTKVDKTVERKCCVECPPCPAPPVAGPSVFLFPPKPKDTLMISRTPEVTCVVVDVSHEDPEVQFNWYVDGVEVHNAKTKPREEQFNSTFRVVSVLTVVHQDWLNGKEYKCKVSNKGLPAPIEKTISKTKGQPREPQVYTLPPSREEMTKNQVSLTCLVKGFYPSDIAVEWESNGQPENNYKTTPPMLDSDGSFFLYSKLTVDKSRWQQGNVFSCSVMHEALHNHYTQKSLSLSPGK
light: DIQMTQFPSSLSASVGDRVTITCRASQGIRNDLGWYQQKPGKAPKRLIYAASRLHRGVPSRFSGSGSGTEFTLTISSLQPEDFATYYCLQHNSYPCSFGQGTKLEIKRTVAAPSVFIFPPSDEQLKSGTASVVCLLNNFYPREAKVQWKVDNALQSGNSQESVTEQDSKDSTYSLSSTLTLSKADYEKHKVYACEVTHQGLSSPVTKSFNRGEC
modifications: Heavy Chain of Figitumumab; Light Chain of Figitumumab
For B1, the T1/2 ([10]; IV) is given as “IV; 20 days”.
